Molecular target: T1, Bifunctional epoxide hydrolase 2 (Homo sapiens, UniProt P34913)
T1 sequence (P34913 whole entry): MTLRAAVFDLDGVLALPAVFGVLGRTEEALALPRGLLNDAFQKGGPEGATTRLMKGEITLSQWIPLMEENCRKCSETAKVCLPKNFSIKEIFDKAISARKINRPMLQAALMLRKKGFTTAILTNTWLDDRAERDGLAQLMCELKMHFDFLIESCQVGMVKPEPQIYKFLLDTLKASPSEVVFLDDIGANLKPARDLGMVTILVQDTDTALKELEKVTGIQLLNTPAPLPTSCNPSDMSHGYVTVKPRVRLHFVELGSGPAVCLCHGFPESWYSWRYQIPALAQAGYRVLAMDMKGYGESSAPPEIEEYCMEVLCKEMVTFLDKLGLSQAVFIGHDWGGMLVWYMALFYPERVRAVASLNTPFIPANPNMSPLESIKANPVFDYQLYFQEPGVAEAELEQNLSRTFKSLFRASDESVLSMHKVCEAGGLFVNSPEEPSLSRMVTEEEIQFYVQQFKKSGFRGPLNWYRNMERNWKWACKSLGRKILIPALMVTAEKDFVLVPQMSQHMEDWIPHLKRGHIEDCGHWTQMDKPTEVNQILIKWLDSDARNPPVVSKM
Test: Inhibition of soluble epoxide hydrolase by fluorescence assay

Compound	IC50
O=C(Nc1cccc(OCCCN2CCOCC2)c1)C(O)CCC12CC3CC(CC(C3)C1)C2 (centres undefined)	530 nM
O=C(Nc1cccc(OCCCN2CCOCC2)c1)C1CCCCC1	390 nM
O=C(CC12CC3CC(CC(C3)C1)C2)C(=O)Nc1ccc(OCc2ccccc2)cc1	1110 nM
O=C(Nc1ccc(OCc2ccccc2)cc1)C(O)CC12CC3CC(CC(C3)C1)C2 (centres undefined)	270 nM
O=C(Nc1ccc(OCc2ccccc2)cc1)C(O)C12CC3CC(CC(C3)C1)C2 (centres undefined)	310 nM
O=S(=O)(Nc1cccc(OCCCN2CCOCC2)c1)c1ccc(C(F)(F)F)cc1	15000 nM
O=C(Nc1cccc(OCCCN2CCOCC2)c1)C(=O)C12CC3CC(CC(C3)C1)C2	> 2000 nM
O=C(CCC12CC3CC(CC(C3)C1)C2)C(=O)NCCc1ccc(OCc2ccccc2)cc1	685 nM
O=C(Nc1ccc(OCc2ccccc2)cc1)C(=O)C12CC3CC(CC(C3)C1)C2	210 nM
O=C(NCCc1ccc(OCc2ccccc2)cc1)C(O)CC12CC3CC(CC(C3)C1)C2 (centres undefined)	185 nM
O=S(=O)(Nc1cccc(OCCCN2CCOCC2)c1)NC12CC3CC(CC(C3)C1)C2	3600 nM
O=C(Nc1cccc(OCCCN2CCOCC2)c1)C(O)C12CC3CC(CC(C3)C1)C2 (centres undefined)	> 2000 nM
O=C(CC12CC3CC(CC(C3)C1)C2)C(=O)NCCc1ccc(OCc2ccccc2)cc1	1540 nM

These reach a lower IC50. Values come first.

IC50	Compound
93 nM	O=C(Nc1cccc(OCCCN2CCOCC2)c1)c1ccc(C(F)(F)F)cc1
8.2 nM	O=C(Nc1ccc(OC(F)(F)F)cc1)Nc1cccc(OCCCN2CCOCC2)c1
2.5 nM	O=C(CC12CC3CC(CC(C3)C1)C2)Nc1cccc(OCCCN2CCOCC2)c1
28 nM	O=C(CC1CCCCC1)Nc1cccc(OCCCN2CCOCC2)c1
22 nM	S=C(Nc1cccc(OCCCN2CCOCC2)c1)NC12CC3CC(CC(C3)C1)C2
15 nM	O=C(NCCc1ccc(OCc2ccccc2)cc1)NCCC12CC3CC(CC(C3)C1)C2
110 nM	O=C(CNC12CC3CC(CC(C3)C1)C2)Nc1cccc(OCCCN2CCOCC2)c1
23 nM	O=C(Nc1cccc(OCCCN2CCOCC2)c1)C(O)CC12CC3CC(CC(C3)C1)C2 (centres undefined)
48 nM	O=C(CCC12CC3CC(CC(C3)C1)C2)C(=O)Nc1cccc(OCCCN2CCOCC2)c1
11 nM	O=C(NCCc1ccc(OCc2ccccc2)cc1)C(O)CCC12CC3CC(CC(C3)C1)C2 (centres undefined)
49 nM	O=C(CC12CC3CC(CC(C3)C1)C2)C(=O)Nc1cccc(OCCCN2CCOCC2)c1
55 nM	O=C(Cc1ccc(C(F)(F)F)cc1)Nc1cccc(OCCCN2CCOCC2)c1
1.2 nM	O=C(Nc1ccc(C(F)(F)F)cc1)Nc1cccc(OCCCN2CCOCC2)c1
88 nM	O=C(Nc1cccc(OCCCN2CCOCC2)c1)C12CC3CC(CC(C3)C1)C2
0.8 nM	O=C(Nc1cccc(OCCCN2CCOCC2)c1)NC12CC3CC(CC(C3)C1)C2
3.9 nM	O=C(Nc1cccc(OCCCN2CCOCC2)c1)NC1CCCCC1
